# Measured values: patent US11938122B2, “5-[[4-[2-[5-(1-hydroxyethyl)pyridin-2-yl]ethoxy]phenyl]methyl]-1,3- thiazolidine-2,4-dione for treating nonalcoholic fatty liver disease” (Minoryx Therapeutics S.L., priority 2016, dated 2024)
# How the values were obtained:
# [1] = MIN-102 single oral dose (SAD) pharmacokinetics in healthy subjects; settings: human, in vivo, some doses
# CYP3A4 = test: CYP induction in cryopreserved human hepatocytes; type: in vitro ADME; settings: 50 μM, hepatocytes from 3 human donors
# [2] = Stability in the hepatocyte incubation medium; type: in vitro ADME; settings: 50 μM, 24-hour incubation
# Procedure: The stability of MIN-102 in the incubation medium was assayed in parallel at the highest test concentration (50 μM) and quantified in incubation medium.
# [3] = test system: MCD diet NASH mouse model; test: Methionine Choline Deficient (MCD) diet NASH mouse model; type: in vivo; settings: 62.5 mg/kg BID oral, 7 weeks
# Text: According to one NASH model in mice (See Verdelho Machado et al., PlosOne May 27:10(5):e0127991 (2015)), male C57BL/6 inbred mice, aged 8 weeks, were obtained from Charles River, France. During the acclimation phase, standard (control chow) diet (RM1 (E) 801492, SDS) and tap water was provided ad libitum. Mice were then fed a Methionine Choline Deficient (MCD) diet (ref #A02082002B from Research Diets, USA) supplemented without or with the test item, provided ad libitum. All procedures were performed in accordance with the Guide for the Care and Use of Laboratory Animals (revised 1996 and 2011, 2010/63/EU) and French laws. 20 animals were housed in ventilated and enriched housing cages (310×125×127 mm^3) throughout the experimental phase. Animals' cages litters were changed at least once a week. They were housed in groups of 10 animals during the whole study, on a normal 12 hours light cycle (at 08:00 pm lights off), 22±2° C. and 50±10% relative humidity.
# After the acclimation period, mice (n=20) were weighed and randomized into 2 homogenous treatment groups based on body weight (n=10/group), put on a MCD diet, and treated BID orally with vehicle or MIN-102 for 7 weeks. Body weight was measured 3 times/week until the end of the experimental phase. At 7 weeks of diet/treatment, mice were weighed and treated at ˜08:00 am in the morning, then bled (maximal volume/EDTA) at ˜1:00 pm. Plasma was then immediately isolated and stored at […] prior to assay plasma ALT and AST. The plasma volume left over was stored at […] for eventual additional analysis.
# After blood collection, mice were sacrificed by cervical dislocation under isoflurane anesthesia and exsanguinated with sterile saline. Liver was collected and weighted. A ˜20 mg liver sample (weight recorded) was dissected for hepatic total cholesterol and triglycerides levels. A 0.5 cm^3 liver sample was frozen in isopentane for oil red O staining. […]
# A NAFLD scoring system (NAS) adapted from Kleiner et al. (Hepatology. 41(6):1313-1321 (2005)) was used. An individual mouse NAS total score was calculated for each animal by summing up the score for (1) hepatocellular steatosis, (2) liver inflammation, (3) lobular fibrosis, and (4) hepatocyte ballooning. […]
# Data are expressed as mean±SEM. […]
# The preventive effects of MIN-102 was evaluated in a 7-week Methionine Choline Deficient (MCD) diet NASH mouse model (Verdelho Machado et al.). […]
# After the acclimation period, C57BL6/J male mice (n=20) were weighed and randomized into 2 homogenous treatment groups based on body weight (n=10/group), put on a MCD diet, and treated BID orally with a vehicle or MIN-102 (125 mg/Kg/day) for 7 weeks. Body weight was measured 3 times/week until the end of the experimental phase. […]
# [4] = test system: major drug metabolizing cytochrome P450 (CYP) enzymes; test: Reversible and time-dependent inhibition (TDI) of major CYP enzymes, human liver microsomes; type: in vitro ADME; settings: in vitro concentrations of 100 μM or lower
# Procedure: Inhibition was screened using a cocktail incubation with CYP specific substrates for eight major drug metabolizing CYP enzymes (CYPs 1A2, 2A6, 2B6, 2C8, 2C9, 2C19, 2D6 and 3A4) in incubations with a pool of human liver microsomes. In reversible inhibition, MIN-102 was incubated with buffer, microsomes, cofactor NADPH and CYP-specific substrate cocktail mix for 15 min. In TDI study, buffer and microsomes were preincubated with MIN-102 in the presence and absence of cofactor NADPH for 0 or 30 min to elucidate the possible time-dependency of inhibition. Secondary incubation was conducted with CYP-specific substrate cocktail mix for 30 min. MIN-102 was used at final concentrations of 0.01, 0.1, 1, 10, and 100 μM in both assays.
# EAE mouse model = test: Experimental autoimmune encephalitis (EAE) mouse model; type: in vivo; settings: EAE mice, highest dose (125 mg/Kg/day oral, bid)
# Text: The anti-inflammatory potential of MIN-102 was studied using an EAE mouse model, e.g., as described in Linker and Lee, Experimental & Translational Stroke Medicine 1:5 (2009). This model for neuroinflammation is a highly reproducible and long established model of multiple sclerosis. The model is based on the induction of an autoimmune reaction upon the exposure of the animals to myelin antigens. Several days after inoculation, e.g., 9-12 days, the mouse develops a relapsing-remitting or chronic disease course.
# In the study, female C57Bl/6 mice were sensitized by a subcutaneous injection of myelin oligodendrocyte glycoprotein peptide fragment 35-55 (MOG35-55) in Freund's Complete Adjuvant (CFA) at the tail base. Starting at five days after disease induction, the animals were treated at three different oral doses of MIN-102, 17, 50, and 125 mg/Kg/day, using bid administration. From day five, the animals were weighed and scored for the appearance of disease symptoms. The levels of neutrophils were measured in mice from the naïve, vehicle, and the highest MIN-102 dose. Data were analyzed by one-way ANOVA followed by the Dunnett's post-hoc test versus the vehicle group (*, p <0.05). Results are presented as mean+standard error of the mean of n=10, except n=9 for the highest dose of MIN-102, and n=4 for the naïve group.
structure (smiles),measurement,setting,value
"CC(O)c1ccc(CCOc2ccc(CC3SC(=O)NC3=O)cc2)nc1 (racemic) [MIN-102, 5-[[4-[2-[5-(1-hydroxyethyl)pyridin-2-yl]ethoxy]phenyl]methyl]-1,3-thiazolidine-2,4-dione]",AUC(0-inf),[1],20 to 400 µg·h/mL
same,increase in CYP3A4 mRNA,CYP3A4,less than 20 % of the respective positive control induction
same,increase in activity of CYP3A4 probe reaction,CYP3A4,less than 20 % of the respective positive control induction
same,stability in incubation medium,[2],remained stable
same,Mean NAS group score,[3]; mean±SEM,0.44±01
same,reduction in hepatic triglycerides levels,[3]; vs vehicle,92%
same,reduction of plasma ALT level,[3]; vs vehicle,78%
same,reduction of plasma AST level,[3]; vs vehicle,55%
same,reversible or time-dependent inhibition towards major CYP enzymes,[4],did not cause remarkable reversible or time-dependent inhibition
same,Lymphocyte number,EAE mouse model,3.6 ± 2.3 ×10^3 cells/μl
same,N/L ratio,EAE mouse model,0.52
same,Neutrophil number,EAE mouse model,1.9 ± 0.6 ×10^3 cells/μl
